Measured values taken from patent publication US20240067632A1, “WEE1 Degrading Compounds and Uses Thereof” (Bristol-Myers Squibb Company, priority 2022, published 2024).

Biological target: T1, WEE1 (Homo sapiens, UniProt P30291+Q96SW2)
T1 construct: C-terminal ePL-tagged (DiscoverX, Fremont, CA) full-length WEE1 expression construct; expressed in transfected cells; host or cells: LentiX-HEK293T (Invitrogen), lentiviral transduction; co-expressing GSPT1-GN (G576N, lacking the first 158 amino acids)
Assay: WEE1-ePL degradation assay (LentiX-WEE1-ePL-GSPT1-ND cells, InCELL Hunter luminescence, 4 h)
Format: cell-based
Conditions: 293T-LentiX WEE1-ePL cells
Procedure: To generate LentiX-WEE1-ePL-GSPT1-ND cells for the WEE1 degradation assay, LentiX-HEK293T (Invitrogen) were transduced by lentivirus with a C-terminal ePL-tagged (DiscoverX, Fremont, CA) full-length WEE1 expression construct. […] Cells were selected and maintained in complete DMEM media (DMEM, 10% Heat Inactivated FBS, 400 μg/mL Geneticin, and 1 μg/mL puromycin at 37 C and 5% CO2). Cells were passaged every 3-4 days by reseeding 1×10^6 cells in a T150 flask.
Cells were dispensed into 384-well white plates (Corning #3570, NY) that were pre-spotted with compounds using an acoustic dispenser (Echo acoustic transfer system, Beckman Coulter Life Sciences, Carlsbad, CA) as a 10-point dose-response curve with a 3-fold dilution starting at either 1 uM or 10 uM and including a DMSO control. Twenty-five microliters of media containing 2500 cells for LentiX-oeWEE1-ePL was dispensed per well. Assay plates were incubated at 37° C. with 5% CO2 for four hours (WEE1) After incubation, 25 μL of the InCELL Hunter™ Detection Reagent Working Solution (DiscoverX, Fremont, CA) was added to each well and incubated at room temperature for 30 minutes protected from light. After 30 minutes, luminescence was read on a PHERAstar luminometer (Cary, NC).
To determine the half-maximal effective concentration (EC50) values for WEE1-ePL degradation, a four parameter logistic model was used: (Sigmoidal Dose-Response Model) (FIT=(A+((B−A)/1+((C/x)^D)))) where C is the inflection point (EC50), D is the Hill slope, and A and B are the low and high limits of the fit respectively). The lower limit of the fit (value A) is referred to as Ymin. […] The maximum limit constraint, Ymax, is similarly derived using DMSO control. The curves were processed and evaluated using Activity Base (IDBS, Alameda, CA).

[1] = lower limit of the fit (0 = luciferase inhibitor, Ymax = DMSO control)
[2] = lower limit of the fit (Ymin=0 luciferase inhibitor, Ymax DMSO control)

Structure (SMILES)	293T-LentiX WEE1-ePL Degradation 4 hr (Ymin) [1]	293T-LentiX WEE1-ePL Degradation 4 hr (Ymin) [2]	DC50 (read-out: 293T-LentiX WEE1-ePL Degradation 4 hr (EC50)) [nM]
O=C1CCC(N2C(=O)c3ccc(O[C@@H]4CCN(Cc5cnc6ccccc6c5)C4)cc3C2=O)C(=O)N1 (stereo partly drawn) [2-(2,6-dioxopiperidin-3-yl)-5-{[(3R)-1-[(quinolin-3-yl)methyl]pyrrolidin-3-yl]oxy}-2,3-dihydro-1H-isoindole-1,3-dione]	86.31		
O=C1CCC(N2C(=O)c3ccc(O[C@@H]4CCN(Cc5ccnc6ccccc56)C4)cc3C2=O)C(=O)N1 (stereo partly drawn) [2-(2,6-dioxopiperidin-3-yl)-5-{[(3R)-1-[(quinolin-4-yl)methyl]pyrrolidin-3-yl]oxy}-2,3-dihydro-1H-isoindole-1,3-dione]	90.1		
O=C1CCC(N2C(=O)c3ccc(O[C@@H]4CCN(Cc5cccc6ncccc56)C4)cc3C2=O)C(=O)N1 (stereo partly drawn) [2-(2,6-dioxopiperidin-3-yl)-5-{[(3R)-1-[(quinolin-5-yl)methyl]pyrrolidin-3-yl]oxy}-2,3-dihydro-1H-isoindole-1,3-dione]	89.045		
O=C1CCC(N2Cc3cc(O[C@@H]4CCN(c5cnccn5)C4)ccc3C2=O)C(=O)N1 (stereo partly drawn) [3-(1-oxo-5-{[(3R)-1-(pyrazin-2-yl)pyrrolidin-3-yl]oxy}-2,3-dihydro-1H-isoindol-2-yl)piperidine-2,6-dione]		110	
O=C1CCC(N2Cc3cc(O[C@@H]4CCN(Cc5c[nH]c6ncccc56)C4)ccc3C2=O)C(=O)N1 (stereo partly drawn) [3-(1-oxo-5-{[(3R)-1-({1H-pyrrolo[2,3-b]pyridin-3-yl}methyl)pyrrolidin-3-yl]oxy}-2,3-dihydro-1H-isoindol-2-yl)piperidine-2,6-dione]		87.61	
O=C1CCC(N2Cc3cc(O[C@@H]4CCN(Cc5c[nH]c6cnccc56)C4)ccc3C2=O)C(=O)N1 (stereo partly drawn) [3-(1-oxo-5-{[(3R)-1-({1H-pyrrolo[2,3-c]pyridin-3-yl}methyl)pyrrolidin-3-yl]oxy}-2,3-dihydro-1H-isoindol-2-yl)piperidine-2,6-dione]		93.39	
O=C1CCC(N2Cc3cc(O[C@H]4CCN(Cc5cccc6ncncc56)C4)ccc3C2=O)C(=O)N1 (stereo partly drawn) [3-(1-oxo-5-{[(3S)-1-[(quinazolin-5-yl)methyl]pyrrolidin-3-yl]oxy}-2,3-dihydro-1H-isoindol-2-yl)piperidine-2,6-dione]	58.74		408

The next lines start with the values.

293T-LentiX WEE1-ePL Degradation 4 hr (Ymin) [1]	293T-LentiX WEE1-ePL Degradation 4 hr (Ymin) [2]	DC50 (read-out: 293T-LentiX WEE1-ePL Degradation 4 hr (EC50)) [nM]	Structure (SMILES)
83.71			O=C1CCC(N2C(=O)c3ccc(O[C@@H]4CCN(Cc5ccc6ncccc6c5)C4)cc3C2=O)C(=O)N1 (stereo partly drawn) [2-(2,6-dioxopiperidin-3-yl)-5-{[(3R)-1-[(quinolin-6-yl)methyl]pyrrolidin-3-yl]oxy}-2,3-dihydro-1H-isoindole-1,3-dione]
	83.91		O=C1CCC(N2Cc3cc(O[C@@H]4CCN(Cc5cnc6ccccc6c5)C4)ccc3C2=O)C(=O)N1 (stereo partly drawn) [3-(1-oxo-5-{[(3R)-1-[(quinolin-3-yl)methyl]pyrrolidin-3-yl]oxy}-2,3-dihydro-1H-isoindol-2-yl)piperidine-2,6-dione]
	87.11		O=C1CCC(N2Cc3cc(O[C@@H]4CCN(Cc5ccnc6ccccc56)C4)ccc3C2=O)C(=O)N1 (stereo partly drawn) [3-(1-oxo-5-{[(3R)-1-[(quinolin-4-yl)methyl]pyrrolidin-3-yl]oxy}-2,3-dihydro-1H-isoindol-2-yl)piperidine-2,6-dione]
	91.51		O=C1CCC(N2Cc3cc(O[C@@H]4CCN(Cc5cccc6ncccc56)C4)ccc3C2=O)C(=O)N1 (stereo partly drawn) [3-(1-oxo-5-{[(3R)-1-[(quinolin-5-yl)methyl]pyrrolidin-3-yl]oxy}-2,3-dihydro-1H-isoindol-2-yl)piperidine-2,6-dione]
	90.24		O=C1CCC(N2Cc3cc(O[C@@H]4CCN(Cc5ccc6ncccc6c5)C4)ccc3C2=O)C(=O)N1 (stereo partly drawn) [3-(1-oxo-5-{[(3R)-1-[(quinolin-6-yl)methyl]pyrrolidin-3-yl]oxy}-2,3-dihydro-1H-isoindol-2-yl)piperidine-2,6-dione]
